Results taken from patent US7842726B2, “Carnitine derivative, salt thereof, external skin preparation and cosmetic material” (Showa Denko K.K., priority 2005, dated 2010).
Where a name gives a salt, the structure may show the parent alone.

Legend:
[1] = test system: Human preadipocytes; experiment: Fat breakdown stimulation: triglyceride accumulation in adipocytes (oil red staining, colorimetry); format: cell-based; settings: for Triglyceride accumulation: relative to untreated adipocytes (100), 50 μM test substance, 5 days incubation; for effect of stimulating fat metabolism: conclusion from Table 2, 50 μM, 5 days
Protocol: Human preadipocytes (available from TOYOBO Co., LTD.) were seeded on a 96-well microplate and were incubated at 37° C. and 5% CO2 using human preadipocyte growth medium TAGM (available from TOYOBO Co., LTD.) while renewing the medium every two days. The growth medium was changed to human adipocyte differentiation medium TADM (available from TOYOBO Co., LTD.), and incubation was carried out for 5 days. Subsequently, the medium was changed to an evaluation medium as shown in Table 1 below without or with 50 μM of any of the test substances described below. The incubation was carried out for 5 days.
The adipocytes were washed with Dulbecco's PBS (−) three times and were formalin fixed. The adipocytes were stained with an oil red/water-isopropanol (1/1) solution, and were extracted with isopropanol. Triglyceride accumulated in the adipocytes was determined by a colorimetry method.

[2] = Stability of carnitine derivatives in aqueous solution at 80° C. (RPHPLC); format: physicochemical; settings: 0.3% by mass in PBS(-) with 5% 1,2-hexanediol, pH 7, 80° C.; changes with time; FIG. 2
Protocol: The test substances were each dissolved in Dulbecco's PBS (−) containing 5% by mass of 1,2-hexanediol, followed by adding 1N NaOH to adjust the pH to 7. Consequently, 0.3% by mass solutions of the test substances were prepared. The solutions were tightly encapsulated in glass vials and were temperature controlled at 80° C. in a water bath.
After the lapse of a predetermined time, the solutions were collected and were analyzed by RPHPLC (column: Shodex C8-5B, eluting solution: 70% acetonitrile, flow rate: 1.0 ml/min). The remaining carnitine derivatives originating from the test substances were determined from the UV absorption intensity at 210 nm.

[3] = Percutaneous absorption through three-dimensional human skin model, two-chamber test; format: in vitro ADME; settings: 0.3% by mass solution, pH 7, 35° C., after 24 hours; compared with L-carnitine palmitate; FIG. 1
Protocol: The test substances were each dissolved in Dulbecco's PBS (−) containing 5% by mass of 1,2-hexanediol, followed by adding 1N NaOH to adjust the pH to 7. Consequently, 0.3% by mass solutions of the test substances were prepared. Two chambers were separated through a three-dimensional model of human skin tissue (TESTSKIN™ LSD-d, available from TOYOBO CO., LTD.). 3 ml of each test substance solution was placed into a chamber on the epidermis side, and 3 ml of Dulbecco's PBS (−) was placed into a chamber on the dermis side. They were stirred with magnetic stirrers at 35° C. for 24 hours.
After the lapse of 24 hours, 1 ml of the buffer solution in the dermis-side chamber was collected, and 0.5 ml of the solution collected was analyzed to determine free carnitine. The remaining portion of the solution collected was adjusted to pH 11 with 1N NaOH, was encapsulated in a 1.5 ml screw vial, and was allowed to stand at 80° C. for 6 hours, followed by cooling. The pH of the solution was adjusted to 7 with 1N HCl, whereby all acylcarnitine derivatives were decomposed to free carnitine. These solutions were each combined with 0.02 ml of 1N hydrochloric acid, 0.1 ml of 1.6% by mass 1-aminoanthracene-in acetone solution and 0.1 ml of 16% by mass aqueous EDC (1-ethyl-3-(3-dimethylaminopropyl)carbodiimide hydrochloride) solution, followed by sufficient stirring. The solutions were allowed to stand still at room temperature for 20 minutes and were washed with 3 ml of diethylether. The aqueous phases were filtered and were analyzed by reversed-phase high performance liquid chromatography (RPHPLC) (column: Phenomenex Synergi-RP, eluting solution: 45% acetonitrile, flow rate: 1.0 ml/min) to determine peak intensities assigned to 1-aminoanthracene-modified carnitine (excitation wavelength: 248 nm, fluorescent wavelength: 418 nm). The concentrations of carnitine derivatives and free carnitine originating from the test substances in the solution in the dermis-side chamber were calculated and determined from the aforesaid peak intensities. […]

C[N+](C)(C)C[C@H](O)CC(=O)[O-].Cl [L-carnitine hydrochloride, reference compound]
Triglyceride accumulation [1]: 98

CCCCCCCCCCCCCCC(C)C(=O)OC(CC(=O)[O-])C[N+](C)(C)C [L-carnitine 2-methylpalmitate hydrochloride]
effect of stimulating fat metabolism [1]: good effects of stimulating fat metabolism
Triglyceride accumulation [1]: 89
residual ratio of carnitine derivatives in aqueous solution [2]: higher residual ratio and were exceptionally more stable in aqueous solutions than the acylcarnitines having a straight-chain acyl group
L-carnitine concentration (carnitine derivatives and free carnitine) passed to the dermis-side chamber [3]: comparable or higher L-carnitine concentrations than that obtained with L-carnitine palmitate

CCCCCCC(CCCC)C(=O)OC(CC(=O)[O-])C[N+](C)(C)C [L-carnitine 2-butyloctanoate hydrochloride]
effect of stimulating fat metabolism [1]: good effects of stimulating fat metabolism
Triglyceride accumulation [1]: 90
residual ratio of carnitine derivatives in aqueous solution [2]: higher residual ratio and were exceptionally more stable in aqueous solutions than the acylcarnitines having a straight-chain acyl group
L-carnitine concentration (carnitine derivatives and free carnitine) passed to the dermis-side chamber [3]: comparable or higher L-carnitine concentrations than that obtained with L-carnitine palmitate

CCCCCCCCCCCCCCCC(=O)O[C@H](CC(=O)[O-])C[N+](C)(C)C.Cl [L-carnitine palmitate hydrochloride, reference compound]
Triglyceride accumulation [1]: 87

CCCCCCCCC(CCCCCC)C(=O)OC(CC(=O)[O-])C[N+](C)(C)C [L-carnitine 2-hexyldecanoate hydrochloride]
effect of stimulating fat metabolism [1]: good effects of stimulating fat metabolism
Triglyceride accumulation [1]: 89
residual ratio of carnitine derivatives in aqueous solution [2]: higher residual ratio and were exceptionally more stable in aqueous solutions than the acylcarnitines having a straight-chain acyl group
L-carnitine concentration (carnitine derivatives and free carnitine) passed to the dermis-side chamber [3]: comparable or higher L-carnitine concentrations than that obtained with L-carnitine palmitate
